The values below come from US4409238A, “Insecticides and insecticidal compositions” (Kuraray Co., Ltd., priority 1977, dated 1983).

Some results are limits rather than exact numbers.

Broadly, the mortality is the percentage killed. Lower therefore signals a weak lethal effect.

In one data set the test system is guppies. The data set can be described thus: Fish toxicity test (Test Example 6). The format is in vivo. Conditions: female guppies, 48 hours, 25° C.; concentration at which 90% or more were killed. As for the experimental part: To 5 l of water were added 250 mg of sorpol SM-200 (registered trademark, Toho Chemical Co., Ltd.) or Tween-20 (commercial product) as an emulsifier (surfactant) as well as 2.5 ml of an acetone solution containing one of the test compounds in a predetermined concentration. The mixture was stirred well to prepare a test water. Ten female guppies from 3 to 4 months of age were released into the test water and maintained at 25° C. The concentration of the test compound at which 90% or more of the guppies were killed during the ensuring 48 hours was determined. (This concentration is referred to as LC90).

For another data set, the system named is house-flies. The data set can be described thus: Settling mist mortality test against houseflies, oil preparations of Formulation Example 3 (Utility Example 4). The format is in vivo, houseflies (Musca domestica). Particulars: oil preparation with 0.1 part compound and 0.08 part permethrin per 100 parts, 24 hours. As for the experimental part:
To 0.1 part of each of Compounds [1] to [28] was added 0.08 part of permethrin, followed by the addition of a sufficient amount of kerosene to make 100 parts. The mixture was stirred to obtain an oil preparation of each compound.
By the settling mist method, a mortality test against house-flies was carried out using the oil preparations obtained in Formulation Example 3 from Compounds [1], [2], [5] to [11] and [17]. After 24 hours, the flies were examined for deaths. The mortality (%) was not less than 90% for each of Compounds [1], [2], [5] to [11] and [17].

For data set [1], the system named is houseflies (Musca domestica). The data set can be described thus: Settling mist mortality test against houseflies, oil preparations of Formulation Example 1 (Utility Example 2). The data set is classed as in vivo. Particulars: oil preparation with 0.2 part compound and 0.8 part piperonyl butoxide per 100 parts, 24 hours. As for the experimental part: 0.2 part of each of Compounds [1], [2], [5] to [13] and [17] was prepared and 0.8 part of piperonyl butoxide was added to each of them. To this mixture was added a sufficient amount of kerosene to make 100 parts, followed by stirring. By this procedure there was obtained an oil preparation of each Compound.
By the settling mist method, a mortality test against houseflies (Musca domestica) was carried out using the oil preparations obtained according to Formulation Example 1 from Compounds [1], [2], [5] to [11] […]. After 24 hours, the flies were examined for deaths. The mortality (%) was not less than 90% for each of Compounds [1], [2], [5] to [11] to [17].

The nature of data set [2]: Light stability test (Test Example 4). The data set is classed as physicochemical. Particulars: direct sunlight between glass plates, 12° C., relative to aluminum foil-covered control; for remaining at 4 h: read-out: Residue (%) Exposure time 4 hrs.; for remaining at 8 h: read-out: Residue (%) Exposure time 8 hrs. The method, then:
Into 2.0 ml of acetone were dissolved 80 mg of each test compound. A 5 μl portion of the solution was taken and spread on a glass plate (Micro Standard Cover Glass, 18 m/m No. 1, 200 pcs, Matsunami Glass Ind., Ltd.) and the acetone was evaporated. Then, a similar glass plate was superimposed on the above plate in such a manner that the test liquid was sandwitched. The specimen was exposed to direct sunlight at an atmospheric temperature of 12° C. for a predetermined exposure time. As an unexposed control, a similar specimen was covered with an aluminum foil. The test liquid was washed away with 1.0 ml of methanol containing 0.04% of dioctyl phthalate as an internal reference and high-speed liquid chromatography was carried out on the washings to determine the residual amount of the test compound. The residue (%) was calculated with the value for the aluminum foil-covered control specimen as the standard.

A further data set deals with green rice leafhoppers. The data set can be described thus: Spray test on rice seedlings against green rice leafhoppers (Utility Example 1). The format is in vivo, green rice leafhoppers (Nephotettix cincticeps). Conditions: 30% emulsifiable concentrate (Formulation Example 5) diluted 300-fold, 10 ml/pot, 24 hours. As for the experimental part: To 30 parts of each of Compounds [1], [2], [5] to [13] and [17] to [19] was added 50 parts of xylene and 20 parts of Sorpol SM-200 (a surfactant, trademark of Toho Chemical Co., Ltd.). The mixture was stirred well and dissolved to obtain a 30% emulsifiable concentrate.
The emulsifiable concentrate prepared from Compounds [1], [2], [6], [7], [9], [10], [12] and [13] in Formulation Example 5 were each diluted 300-fold with water. Then, each of the dilutions was sprayed over rice seedlings 25 days after sowing at the rate of 10 ml/pot. The pot was covered with a wire-net and 15 green rice leafhoppers were released under the net. After 24 hours, the leafhoppers were examined for deaths. The mortality (%) was not less than 90% for each of Compounds [1], [2], [6], [7], [9], [10], [12] and [13].

Another data set deals with houseflies. The data set can be described thus: Settling mist mortality test against houseflies, oil preparations of Formulation Example 2 (Utility Example 3). The data set is classed as in vivo, houseflies (Musca domestica). Conditions: oil preparation with 0.1 part compound and 0.1 part resmethrin per 100 parts, 24 hours. The method, then: To 0.1 part of each of Compounds [1] to [17] was added 0.1 part of resmethrin, followed by the addition of a sufficient amount of kerosene to make 100 parts. The mixture was stirred to obtain an oil preparation of each compound.
By the settling mist method, a mortality test against houseflies was carried out using the oil preparations made in Formulation Example 2 from Compounds [1], [2], [5] to [11] and [17]. After 24 hours, the flies were examined for deaths. The mortality (%) was not less than 90% for each of Compounds [1], [2], [5] to [11] and [17].

Data set [3] relates to houseflies (Musca domestica). The data set can be described thus: Mortality test against houseflies by topical application method (Test Example 1). The data set is classed as in vivo. Conditions: female adult houseflies, 24 hours, 25° C. The method, then:
Each test compound was accurately weighed and a 1% solution and a 0.1% solution of the sample in acetone were prepared. A 1 μl portion of either of the above solutions was micropipetted onto the thoracic dorsal part of each female adult housefly (Musca domestica) under ether anaesthesia and the fly was released in a high-walled dish together with feed. The dish was covered with a metal-wire net and maintained at 25° C. After 24 hours, the test flies were inspected for deaths and the mortality (%) was calculated. Thirty test flies were used per concentration group.

For data set [4], the system named is cockroaches (Blattella germanica). The data set can be described thus: Mortality test against cockroaches by topical application method (Test Example 3). Particulars: 1 μl of 1% solution in acetone, female cockroaches, 24 hours, 25° C. The data set is classed as in vivo. The method, then:
Each test compound was accurately weighed and made in a 1% solution in acetone. Then, 1 μl of the above solution was micropipetted onto the abdominal part of each female cockroach (Blattella germanica) under ether anaesthesia. The roaches were released in a high-walled dish together with feed and, after the disk was covered with a metal wire net, same was maintained at 25° C. Fifteen roaches per group were employed. After 24 hours, the test roaches were inspected for deaths and the mortality (%) for each group was calculated.

Data set [5] in a line: Hydrolysis resistance test (Test Example 5). The data set is classed as physicochemical. Conditions: acetone/water, reflux for 2 days; read-out: Residue (%). The method, then: Into about 8 ml of acetone were dissolved 100 mg of each test compound and, then, 1.0 g of water was added to this solution to prepare a mixed solution. This mixed solution was refluxed for 2 days. After concentration to about one half of the original volume and with the addition of dioctyl phthalate as an internal reference, the residual amount of the compound was determined by high-speed liquid chromatography. The residue (%) was then calculated.

Data set [6] concerns green rice leafhoppers (Nephotettix cincticeps). The data set can be described thus: Mortality test against green rice leafhoppers by topical application method (Test Example 2). The data set is classed as in vivo. Particulars: 0.1% solution in acetone, female adults, 24 hours, 25° C. As for the experimental part: Each test compound was accurately weighed and an 0.1% solution in acetone was prepared. Female adults of green rice leafhopper (Nephotettix cincticeps) were anaesthetized with carbon dioxide gas and 0.5 µl of the above solution was micropipetted onto the thoracic abdominal part of each leafhopper. Then, the test leafhoppers were kept at 25° C. with access to rice plant seedlings. Each group comprised 15 green rice leafhoppers. After 24 hours, the leafhoppers were inspected for deaths and the mortality (%) was calculated for each compound.

As for `C#CC(OC(=O)C(C=C(Cl)Cl)C(C)C)c1cccc(Oc2ccccc2)c1` (stereo not drawn) [[2], α-Ethynyl-3-phenoxybenzyl α-(2,2-dichlorovinyl)isovalerate], in the data set with guppies, the LC90 result is “Not less than 10 ppm”. Moreover, the “Mortality (%)” value (in the data set on house-flies; in [1]; with green rice leafhoppers; in the data set on houseflies) was “not less than 90%” throughout. For the same compound, the remaining at 4 h in data set [2] came to 97%. Moreover, the remaining at 8 h in data set [2] amounted to 100%. Further, the “Mortality (%) 1 μg/fly” value in data set [3] is listed as 100%. For the same compound, the “Mortality (%) 10 μg/fly” value in data set [3] is 100%. In addition, in data set [4], the mortality at 1 %, 0.01 mg is 80%. The remaining at 48 h in [5] is more than 90%.

In the case of `CC(C)C(C=C(Cl)Cl)C(=O)OC(C#N)c1cccc(Oc2ccccc2)c1` (stereo not drawn) [Compound [1], α-Cyano-3-phenoxybenzyl α-(2,2-dichlorovinyl)isovalerate], the “Mortality (%)” value (with house-flies; in data set [1]; with green rice leafhoppers; in the data set with houseflies) was “not less than 90%” each time. The mortality at 0.1 % in [6] was not below 90%. Also, the remaining at 4 h in [2] worked out at 93%. The remaining at 8 h in data set [2] worked out at 90%. Also, the “Mortality (%) 1 μg/fly” value in [3] is recorded as 100%. Further, the “Mortality (%) 10 μg/fly” value in data set [3] is recorded as 100%. This compound also yielded a mortality at 1 %, 0.01 mg in [4] of 100%.
